# Measurements from ChEMBL document CHEMBL1147101, “Development and persistence of antimicrobial resistance in Pseudomonas aeruginosa: a longitudinal observation in mechanically ventilated patients” (Antimicrob Agents Chemother, 2007).
# The source made the active and inactive calls. No cut-off for these calls is given here.
# Experiments:
# Type in all cases: functional, organism-based
# Settings in all cases: Trachea
# Pseudomonas aeruginosa [1] = test: Antimicrobial activity against Pseudomonas aeruginosa 65.68-1 tracheal isolates from mechanically ventilated tuberculosis patient
# Pseudomonas aeruginosa [2] = test: Antimicrobial activity against Pseudomonas aeruginosa 65.68-4 tracheal isolates from mechanically ventilated tuberculosis patient
# Pseudomonas aeruginosa [3] = test: Antimicrobial activity against Pseudomonas aeruginosa 8C4 tracheal isolates from mechanically ventilated chronic respiratory insufficiency patient
# Pseudomonas aeruginosa [4] = test: Antimicrobial activity against Pseudomonas aeruginosa 19D9 tracheal isolates from mechanically ventilated chronic respiratory insufficiency patient
# Pseudomonas aeruginosa [5] = test: Antimicrobial activity against Pseudomonas aeruginosa 65.68-2 tracheal isolates from mechanically ventilated tuberculosis patient
# Pseudomonas aeruginosa [6] = test: Antimicrobial activity against Pseudomonas aeruginosa 3B1 tracheal isolates from mechanically ventilated tuberculosis patient
# Pseudomonas aeruginosa [7] = test: Antimicrobial activity against Pseudomonas aeruginosa 9A10 tracheal isolates from mechanically ventilated chronic respiratory insufficiency patient
# Pseudomonas aeruginosa [8] = test: Antimicrobial activity against Pseudomonas aeruginosa 5H6 tracheal isolates from mechanically ventilated chronic respiratory insufficiency patient
# Pseudomonas aeruginosa [9] = test: Antimicrobial activity against Pseudomonas aeruginosa 5F2 tracheal isolates from mechanically ventilated chronic respiratory insufficiency patient
# Pseudomonas aeruginosa [10] = test: Antimicrobial activity against Pseudomonas aeruginosa 9A1 tracheal isolates from mechanically ventilated chronic respiratory insufficiency patient
# Pseudomonas aeruginosa [11] = test: Antimicrobial activity against Pseudomonas aeruginosa 2A9 tracheal isolates from mechanically ventilated tuberculosis patient
# Pseudomonas aeruginosa [12] = test: Antimicrobial activity against Pseudomonas aeruginosa 8A2 tracheal isolates from mechanically ventilated chronic respiratory insufficiency patient
# Pseudomonas aeruginosa [13] = test: Antimicrobial activity against Pseudomonas aeruginosa 65.33-2 tracheal isolates from mechanically ventilated tuberculosis patient
# Pseudomonas aeruginosa [14] = test: Antimicrobial activity against Pseudomonas aeruginosa 29G8 tracheal isolates from mechanically ventilated chronic respiratory insufficiency patient
# Pseudomonas aeruginosa [15] = test: Antimicrobial activity against Pseudomonas aeruginosa 1B9 tracheal isolates from mechanically ventilated tuberculosis patient
# Pseudomonas aeruginosa [16] = test: Antimicrobial activity against Pseudomonas aeruginosa 65.36-4 tracheal isolates from mechanically ventilated tuberculosis patient
# Pseudomonas aeruginosa [17] = test: Antimicrobial activity against Pseudomonas aeruginosa 12A3 tracheal isolates from mechanically ventilated chronic respiratory insufficiency patient
# Pseudomonas aeruginosa [18] = test: Antimicrobial activity against Pseudomonas aeruginosa 2A2 tracheal isolates from mechanically ventilated tuberculosis patient
# Pseudomonas aeruginosa [19] = test: Antimicrobial activity against Pseudomonas aeruginosa 19B6 tracheal isolates from mechanically ventilated chronic respiratory insufficiency patient
# Pseudomonas aeruginosa [20] = test: Antimicrobial activity against Pseudomonas aeruginosa 19C7 tracheal isolates from mechanically ventilated chronic respiratory insufficiency patient
# Pseudomonas aeruginosa [21] = test: Antimicrobial activity against Pseudomonas aeruginosa 3D10 tracheal isolates from mechanically ventilated chronic respiratory insufficiency patient
# Pseudomonas aeruginosa [22] = test: Antimicrobial activity against Pseudomonas aeruginosa 2A7 tracheal isolates from mechanically ventilated tuberculosis patient
# Pseudomonas aeruginosa [23] = test: Antimicrobial activity against Pseudomonas aeruginosa 19E9 tracheal isolates from mechanically ventilated chronic respiratory insufficiency patient
# Pseudomonas aeruginosa [24] = test: Antimicrobial activity against Pseudomonas aeruginosa 3E2 tracheal isolates from mechanically ventilated chronic respiratory insufficiency patient
# Pseudomonas aeruginosa [25] = test: Antimicrobial activity against Pseudomonas aeruginosa 12B2 tracheal isolates from mechanically ventilated chronic respiratory insufficiency patient
# Pseudomonas aeruginosa [26] = test: Antimicrobial activity against Pseudomonas aeruginosa 19B3 tracheal isolates from mechanically ventilated chronic respiratory insufficiency patient
# Pseudomonas aeruginosa [27] = test: Antimicrobial activity against Pseudomonas aeruginosa 2A5 tracheal isolates from mechanically ventilated tuberculosis patient
# Pseudomonas aeruginosa [28] = test: Antimicrobial activity against Pseudomonas aeruginosa 9A3 tracheal isolates from mechanically ventilated chronic respiratory insufficiency patient
# Pseudomonas aeruginosa [29] = test: Antimicrobial activity against Pseudomonas aeruginosa 29F6 tracheal isolates from mechanically ventilated chronic respiratory insufficiency patient
# Pseudomonas aeruginosa [30] = test: Antimicrobial activity against Pseudomonas aeruginosa P21.23 tracheal isolates from mechanically ventilated tuberculosis patient
# Pseudomonas aeruginosa [31] = test: Antimicrobial activity against Pseudomonas aeruginosa 8B11 tracheal isolates from mechanically ventilated chronic respiratory insufficiency patient
# Pseudomonas aeruginosa [32] = test: Antimicrobial activity against Pseudomonas aeruginosa 5G3 tracheal isolates from mechanically ventilated chronic respiratory insufficiency patient
# Pseudomonas aeruginosa [33] = test: Antimicrobial activity against Pseudomonas aeruginosa P21.21 tracheal isolates from mechanically ventilated tuberculosis patient
# Pseudomonas aeruginosa [34] = test: Antimicrobial activity against Pseudomonas aeruginosa 10A6 tracheal isolates from mechanically ventilated chronic respiratory insufficiency patient
# Pseudomonas aeruginosa [35] = test: Antimicrobial activity against Pseudomonas aeruginosa 29G7 tracheal isolates from mechanically ventilated chronic respiratory insufficiency patient
# Pseudomonas aeruginosa [36] = test: Antimicrobial activity against Pseudomonas aeruginosa 13E1 tracheal isolates from mechanically ventilated chronic respiratory insufficiency patient
# Pseudomonas aeruginosa [37] = test: Antimicrobial activity against Pseudomonas aeruginosa 15G2 tracheal isolates from mechanically ventilated chronic respiratory insufficiency patient
# Pseudomonas aeruginosa [38] = test: Antimicrobial activity against Pseudomonas aeruginosa 3D1 tracheal isolates from mechanically ventilated chronic respiratory insufficiency patient
# Pseudomonas aeruginosa [39] = test: Antimicrobial activity against Pseudomonas aeruginosa 19E2 tracheal isolates from mechanically ventilated chronic respiratory insufficiency patient
# Pseudomonas aeruginosa [40] = test: Antimicrobial activity against Pseudomonas aeruginosa 2A3 tracheal isolates from mechanically ventilated tuberculosis patient
# Pseudomonas aeruginosa [41] = test: Antimicrobial activity against Pseudomonas aeruginosa 65.33-4 tracheal isolates from mechanically ventilated tuberculosis patient
# Pseudomonas aeruginosa [42] = test: Antimicrobial activity against Pseudomonas aeruginosa 2A5 tracheal isolates from mechanically ventilated chronic respiratory insufficiency patient
# Pseudomonas aeruginosa [43] = test: Antimicrobial activity against Pseudomonas aeruginosa 1A9 tracheal isolates from mechanically ventilated tuberculosis patient
# Pseudomonas aeruginosa [44] = test: Antimicrobial activity against Pseudomonas aeruginosa 10B3 tracheal isolates from mechanically ventilated chronic respiratory insufficiency patient
# Pseudomonas aeruginosa [45] = test: Antimicrobial activity against Pseudomonas aeruginosa 24E5 tracheal isolates from mechanically ventilated chronic respiratory insufficiency patient
# Pseudomonas aeruginosa [46] = test: Antimicrobial activity against Pseudomonas aeruginosa 65.36-2 tracheal isolates from mechanically ventilated tuberculosis patient
# Pseudomonas aeruginosa [47] = test: Antimicrobial activity against Pseudomonas aeruginosa 12A7 tracheal isolates from mechanically ventilated chronic respiratory insufficiency patient
# Pseudomonas aeruginosa [48] = test: Antimicrobial activity against Pseudomonas aeruginosa 22D6 tracheal isolates from mechanically ventilated chronic respiratory insufficiency patient
# Pseudomonas aeruginosa [49] = test: Antimicrobial activity against Pseudomonas aeruginosa 2F6 tracheal isolates from mechanically ventilated tuberculosis patient
# Pseudomonas aeruginosa [50] = test: Antimicrobial activity against Pseudomonas aeruginosa 2C2 tracheal isolates from mechanically ventilated tuberculosis patient
# Pseudomonas aeruginosa [51] = test: Antimicrobial activity against Pseudomonas aeruginosa 9B5 tracheal isolates from mechanically ventilated chronic respiratory insufficiency patient
# Pseudomonas aeruginosa [52] = test: Antimicrobial activity against Pseudomonas aeruginosa 2C1 tracheal isolates from mechanically ventilated tuberculosis patient
# Pseudomonas aeruginosa [53] = test: Antimicrobial activity against Pseudomonas aeruginosa 2A6 tracheal isolates from mechanically ventilated tuberculosis patient
# Pseudomonas aeruginosa [54] = test: Antimicrobial activity against Pseudomonas aeruginosa 22D2 tracheal isolates from mechanically ventilated chronic respiratory insufficiency patient
# Pseudomonas aeruginosa [55] = test: Antimicrobial activity against Pseudomonas aeruginosa 15H5 tracheal isolates from mechanically ventilated chronic respiratory insufficiency patient
# Pseudomonas aeruginosa [56] = test: Antimicrobial activity against Pseudomonas aeruginosa 65.36-1 tracheal isolates from mechanically ventilated tuberculosis patient
# Pseudomonas aeruginosa [57] = test: Antimicrobial activity against Pseudomonas aeruginosa 29G6 tracheal isolates from mechanically ventilated chronic respiratory insufficiency patient
# Pseudomonas aeruginosa [58] = test: Antimicrobial activity against Pseudomonas aeruginosa 8A12 tracheal isolates from mechanically ventilated chronic respiratory insufficiency patient
# Pseudomonas aeruginosa [59] = test: Antimicrobial activity against Pseudomonas aeruginosa 10A9 tracheal isolates from mechanically ventilated chronic respiratory insufficiency patient
# Pseudomonas aeruginosa [60] = test: Antimicrobial activity against Pseudomonas aeruginosa 24G1 tracheal isolates from mechanically ventilated chronic respiratory insufficiency patient
compound,measurement,setting,value
O=C(O)c1cn(C2CC2)c2cc(N3CCNCC3)c(F)cc2c1=O,Activity,Pseudomonas aeruginosa [1],Active
same,Activity,Pseudomonas aeruginosa [2],Active
same,Activity,Pseudomonas aeruginosa [3],Active
same,Activity,Pseudomonas aeruginosa [4],inactive
same,Activity,Pseudomonas aeruginosa [5],Active
same,Activity,Pseudomonas aeruginosa [6],Active
same,Activity,Pseudomonas aeruginosa [7],Active
same,Activity,Pseudomonas aeruginosa [8],Active
same,Activity,Pseudomonas aeruginosa [9],Active
same,Activity,Pseudomonas aeruginosa [10],Active
same,Activity,Pseudomonas aeruginosa [11],Active
same,Activity,Pseudomonas aeruginosa [12],Active
same,Activity,Pseudomonas aeruginosa [13],Active
same,Activity,Pseudomonas aeruginosa [14],Active
same,Activity,Pseudomonas aeruginosa [15],Active
same,Activity,Pseudomonas aeruginosa [16],Active
same,Activity,Pseudomonas aeruginosa [17],Active
same,Activity,Pseudomonas aeruginosa [18],Active
same,Activity,Pseudomonas aeruginosa [19],Active
same,Activity,Pseudomonas aeruginosa [20],Active
same,Activity,Pseudomonas aeruginosa [21],Active
same,Activity,Pseudomonas aeruginosa [22],Active
same,Activity,Pseudomonas aeruginosa [23],Active
same,Activity,Pseudomonas aeruginosa [24],Active
same,Activity,Pseudomonas aeruginosa [25],Active
same,Activity,Pseudomonas aeruginosa [26],Active
same,Activity,Pseudomonas aeruginosa [27],Active
same,Activity,Pseudomonas aeruginosa [28],Active
same,Activity,Pseudomonas aeruginosa [29],Active
same,Activity,Pseudomonas aeruginosa [30],Active
same,Activity,Pseudomonas aeruginosa [31],Active
same,Activity,Pseudomonas aeruginosa [32],Active
same,Activity,Pseudomonas aeruginosa [33],Active
same,Activity,Pseudomonas aeruginosa [34],Active
same,Activity,Pseudomonas aeruginosa [35],Active
same,Activity,Pseudomonas aeruginosa [36],Active
same,Activity,Pseudomonas aeruginosa [37],inactive
same,Activity,Pseudomonas aeruginosa [38],Active
same,Activity,Pseudomonas aeruginosa [39],Active
same,Activity,Pseudomonas aeruginosa [40],Active
same,Activity,Pseudomonas aeruginosa [41],Active
same,Activity,Pseudomonas aeruginosa [42],Active
same,Activity,Pseudomonas aeruginosa [43],Active
same,Activity,Pseudomonas aeruginosa [44],Active
same,Activity,Pseudomonas aeruginosa [45],Active
same,Activity,Pseudomonas aeruginosa [46],Active
same,Activity,Pseudomonas aeruginosa [47],Active
same,Activity,Pseudomonas aeruginosa [48],Active
same,Activity,Pseudomonas aeruginosa [49],Active
same,Activity,Pseudomonas aeruginosa [50],Active
same,Activity,Pseudomonas aeruginosa [51],Active
same,Activity,Pseudomonas aeruginosa [52],Active
same,Activity,Pseudomonas aeruginosa [53],Active
same,Activity,Pseudomonas aeruginosa [54],Active
same,Activity,Pseudomonas aeruginosa [55],Active
same,Activity,Pseudomonas aeruginosa [56],Active
same,Activity,Pseudomonas aeruginosa [57],Active
same,Activity,Pseudomonas aeruginosa [58],Active
same,Activity,Pseudomonas aeruginosa [59],Active
C[C@@H](O)[C@H]1C(=O)N2C(C(=O)O)=C(SCCNC=N)C[C@H]12,Activity,Pseudomonas aeruginosa [1],inactive
same,Activity,Pseudomonas aeruginosa [2],inactive
same,Activity,Pseudomonas aeruginosa [3],Active
same,Activity,Pseudomonas aeruginosa [4],Active
same,Activity,Pseudomonas aeruginosa [5],inactive
same,Activity,Pseudomonas aeruginosa [6],inactive
same,Activity,Pseudomonas aeruginosa [7],Active
same,Activity,Pseudomonas aeruginosa [8],Active
same,Activity,Pseudomonas aeruginosa [9],Active
same,Activity,Pseudomonas aeruginosa [10],Active
same,Activity,Pseudomonas aeruginosa [11],inactive
same,Activity,Pseudomonas aeruginosa [12],Active
same,Activity,Pseudomonas aeruginosa [13],inactive
same,Activity,Pseudomonas aeruginosa [15],inactive
same,Activity,Pseudomonas aeruginosa [16],inactive
same,Activity,Pseudomonas aeruginosa [17],Active
same,Activity,Pseudomonas aeruginosa [18],inactive
same,Activity,Pseudomonas aeruginosa [19],Active
same,Activity,Pseudomonas aeruginosa [20],Active
same,Activity,Pseudomonas aeruginosa [21],Active
same,Activity,Pseudomonas aeruginosa [22],inactive
same,Activity,Pseudomonas aeruginosa [23],Active
same,Activity,Pseudomonas aeruginosa [24],Active
same,Activity,Pseudomonas aeruginosa [25],Active
same,Activity,Pseudomonas aeruginosa [26],Active
same,Activity,Pseudomonas aeruginosa [27],Active
same,Activity,Pseudomonas aeruginosa [28],Active
same,Activity,Pseudomonas aeruginosa [29],Active
same,Activity,Pseudomonas aeruginosa [30],Active
same,Activity,Pseudomonas aeruginosa [31],Active
same,Activity,Pseudomonas aeruginosa [32],Active
same,Activity,Pseudomonas aeruginosa [33],Active
same,Activity,Pseudomonas aeruginosa [34],Active
same,Activity,Pseudomonas aeruginosa [35],Active
same,Activity,Pseudomonas aeruginosa [36],Active
same,Activity,Pseudomonas aeruginosa [37],Active
same,Activity,Pseudomonas aeruginosa [38],Active
same,Activity,Pseudomonas aeruginosa [39],Active
same,Activity,Pseudomonas aeruginosa [40],inactive
same,Activity,Pseudomonas aeruginosa [41],inactive
same,Activity,Pseudomonas aeruginosa [42],Active
same,Activity,Pseudomonas aeruginosa [43],inactive
same,Activity,Pseudomonas aeruginosa [44],Active
same,Activity,Pseudomonas aeruginosa [45],Active
same,Activity,Pseudomonas aeruginosa [46],inactive
same,Activity,Pseudomonas aeruginosa [47],Active
same,Activity,Pseudomonas aeruginosa [48],Active
same,Activity,Pseudomonas aeruginosa [49],inactive
same,Activity,Pseudomonas aeruginosa [50],inactive
same,Activity,Pseudomonas aeruginosa [51],Active
same,Activity,Pseudomonas aeruginosa [52],inactive
same,Activity,Pseudomonas aeruginosa [53],inactive
same,Activity,Pseudomonas aeruginosa [54],Active
same,Activity,Pseudomonas aeruginosa [55],Active
same,Activity,Pseudomonas aeruginosa [56],inactive
same,Activity,Pseudomonas aeruginosa [57],Active
same,Activity,Pseudomonas aeruginosa [58],Active
same,Activity,Pseudomonas aeruginosa [60],Active
same,Activity,Pseudomonas aeruginosa [59],Active
GENTAMICIN,Activity,Pseudomonas aeruginosa [2],Active
same,Activity,Pseudomonas aeruginosa [3],Active
same,Activity,Pseudomonas aeruginosa [4],Active
same,Activity,Pseudomonas aeruginosa [5],inactive
same,Activity,Pseudomonas aeruginosa [7],Active
same,Activity,Pseudomonas aeruginosa [8],Active
same,Activity,Pseudomonas aeruginosa [9],Active
same,Activity,Pseudomonas aeruginosa [10],Active
same,Activity,Pseudomonas aeruginosa [11],inactive
same,Activity,Pseudomonas aeruginosa [12],Active
same,Activity,Pseudomonas aeruginosa [13],Active
same,Activity,Pseudomonas aeruginosa [14],Active
same,Activity,Pseudomonas aeruginosa [15],inactive
same,Activity,Pseudomonas aeruginosa [16],inactive
same,Activity,Pseudomonas aeruginosa [17],Active
same,Activity,Pseudomonas aeruginosa [19],Active
same,Activity,Pseudomonas aeruginosa [20],Active
same,Activity,Pseudomonas aeruginosa [21],Active
same,Activity,Pseudomonas aeruginosa [22],inactive
same,Activity,Pseudomonas aeruginosa [23],Active
same,Activity,Pseudomonas aeruginosa [24],Active
same,Activity,Pseudomonas aeruginosa [25],Active
same,Activity,Pseudomonas aeruginosa [26],Active
same,Activity,Pseudomonas aeruginosa [27],Active
same,Activity,Pseudomonas aeruginosa [28],Active
same,Activity,Pseudomonas aeruginosa [29],Active
same,Activity,Pseudomonas aeruginosa [31],Active
same,Activity,Pseudomonas aeruginosa [32],Active
same,Activity,Pseudomonas aeruginosa [34],Active
same,Activity,Pseudomonas aeruginosa [35],Active
same,Activity,Pseudomonas aeruginosa [36],Active
same,Activity,Pseudomonas aeruginosa [37],Active
same,Activity,Pseudomonas aeruginosa [38],Active
same,Activity,Pseudomonas aeruginosa [39],Active
same,Activity,Pseudomonas aeruginosa [41],Active
same,Activity,Pseudomonas aeruginosa [42],Active
same,Activity,Pseudomonas aeruginosa [43],inactive
same,Activity,Pseudomonas aeruginosa [44],Active
same,Activity,Pseudomonas aeruginosa [46],inactive
same,Activity,Pseudomonas aeruginosa [47],Active
same,Activity,Pseudomonas aeruginosa [49],inactive
same,Activity,Pseudomonas aeruginosa [51],Active
same,Activity,Pseudomonas aeruginosa [52],inactive
same,Activity,Pseudomonas aeruginosa [53],inactive
same,Activity,Pseudomonas aeruginosa [55],Active
same,Activity,Pseudomonas aeruginosa [56],inactive
same,Activity,Pseudomonas aeruginosa [57],Active
same,Activity,Pseudomonas aeruginosa [58],Active
same,Activity,Pseudomonas aeruginosa [60],Active
same,Activity,Pseudomonas aeruginosa [59],Active
